According to patent publication US9931347B2, “Pharmaceutical compound” (IOmet Pharma Ltd., priority 2013, dated 2018):

Tests used:
Recombinant human IDO = Recombinant human IDO (Homo sapiens, UniProt P14902); assay: hIDO biochemical coupled assay; conditions: 45 μM L-tryptophan, coupled with kynurenine formamidase
Outline: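 Recombinant human IDO incubated in 50 mM KPO4 (pH 7.0), 0.5 mM EGTA, 0.5 mM EDTA, 0.05% Triton X100, 20 mM ascorbate, 10 μM methylene blue, 500 U/ml catalase and 50 μg/ml kynurenine formamidase. N-formylkynurenine converted to kynurenine, quantified by fluorescence after Ehrlich's reagent.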

[1] = target: T1, IDO (SKOV3 human ovarian adenocarcinoma cells, IFN-γ induced) (Homo sapiens, UniProt P14902); assay: SKOV3 Kynurenine cell based assay; conditions: IDO induced by 500 ng/ml IFN-γ, 500 μM L-tryptophan, 48 hours
T1 construct: IDO expression was induced in the SKOV3 cells by the addition of 500 ng/ml IFN-γ; endogenous in cells; host or cells: SKOV3 human ovarian adenocarcinoma cells, induced with IFN-γ
Outline: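 Kynurenine in the supernatant, detected by Ehrlich's reagent, served as read-out after 48 h at 37° C with or without test compound. SKOV3 cells (40,000/well) were grown in phenol red-free RPMI, 10% FCS, 2 mM L-glutamine, 500 μM L-tryptophan, with 500 ng/ml IFN-γ to induce IDO.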

Recombinant human TDO = Recombinant human TDO (Homo sapiens, UniProt P48775); assay: hTDO biochemical coupled assay; conditions: 330 μM L-tryptophan, coupled with kynurenine formamidase
Outline: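 Recombinant human TDO with 330 μM L-tryptophan in 50 mM KPO4 pH 7.0 containing EGTA, EDTA, Triton X100, ascorbate, methylene blue, catalase and kynurenine formamidase (KynB), 17 min at room temperature. Stopped with Ehrlich's reagent, 5 min, then kynurenine fluorescence read (Ex475, Em530).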

[2] = target: T2, TDO (A172 human glioblastoma cells) (Homo sapiens, UniProt P48775); assay: A172 Kynurenine cell based assay; conditions: 500 μM L-tryptophan, 48 hours, kynurenine by Erhlich's reagent
T2 construct: This assay utilised cancer cells which expressed either TDO or IDO; endogenous in cells; host or cells: A172 human glioblastoma cells
Outline: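 Kynurenine released into the supernatant was quantified by absorbance at 490 nm after 5 min with Erhlich's reagent. A172 cells were seeded at 30,000/well and exposed to test compound for 48 hours at 37° C. in phenol red-free RPMI containing 500 μM L-tryptophan, 10% FCS and 2 mM L-glutamine.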

Chain of Recombinant human IDO (P14902 whole entry): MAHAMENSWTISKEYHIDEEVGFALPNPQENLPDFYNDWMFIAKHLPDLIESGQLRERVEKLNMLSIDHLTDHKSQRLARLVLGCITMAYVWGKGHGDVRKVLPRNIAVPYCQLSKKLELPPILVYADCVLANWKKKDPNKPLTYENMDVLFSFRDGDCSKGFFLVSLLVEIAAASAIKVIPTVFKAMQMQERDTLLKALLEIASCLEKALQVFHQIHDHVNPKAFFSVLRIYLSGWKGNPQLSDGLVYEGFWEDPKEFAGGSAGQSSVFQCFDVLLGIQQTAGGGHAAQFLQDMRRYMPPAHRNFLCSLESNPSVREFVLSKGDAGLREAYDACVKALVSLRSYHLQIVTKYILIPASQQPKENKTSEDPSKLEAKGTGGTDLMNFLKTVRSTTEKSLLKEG
T1 sequence (P14902 whole entry): as above
Chain of Recombinant human TDO (P48775 whole entry): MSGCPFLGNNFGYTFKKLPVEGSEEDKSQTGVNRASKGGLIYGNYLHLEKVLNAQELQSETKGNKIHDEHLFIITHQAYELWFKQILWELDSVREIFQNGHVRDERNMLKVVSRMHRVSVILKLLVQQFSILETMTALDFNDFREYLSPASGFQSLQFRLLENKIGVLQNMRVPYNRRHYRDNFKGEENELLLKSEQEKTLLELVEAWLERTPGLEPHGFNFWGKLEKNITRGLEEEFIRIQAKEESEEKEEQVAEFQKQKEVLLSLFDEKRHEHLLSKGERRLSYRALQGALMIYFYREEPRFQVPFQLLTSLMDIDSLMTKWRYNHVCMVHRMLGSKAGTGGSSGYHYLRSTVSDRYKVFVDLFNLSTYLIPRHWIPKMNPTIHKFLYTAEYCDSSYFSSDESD
T2 sequence (P48775 whole entry): as above

Compound	hIDO biocehmical assay pIC50 (Recombinant human IDO)	SKOV3 Kynurenine cell based assay pIC50 [1]	hTDO biochemical assay pIC50 (Recombinant human TDO)	A172 Kynurenine cell based assay pIC50 [2]
Cc1cccc2c(C3CCN(S(=O)(=O)c4ccc5c(c4)CN(C(=O)C(F)(F)F)CC5)CC3)c[nH]c12 [Compound 37]	+− (+− = pIC50 <4.00)	+ (+ = pIC50 4.00-4.99)	+− (+− = pIC50 <4.00)	+− (+− = pIC50 <4.00)
CC(=O)N1CC=C(c2c(C)[nH]c3ccccc23)CC1 [Compound 104]	+− (+− = pIC50 <4.00)	+ (+ = pIC50 4.00-4.99)	+ (+ = pIC50 4.00-4.99)	+− (+− = pIC50 <4.00)
O=C(CO)N1CCC(c2c[nH]c3ccccc23)CC1 [Compound 67]	+− (+− = pIC50 <4.00)	+− (+− = pIC50 <4.00)	+− (+− = pIC50 <4.00)	+ (+ = pIC50 4.00-4.99)
CC(=O)N1CCC(c2c[nH]c3ccncc23)CC1 [Compound 174]	+− (+− = pIC50 <4.00)	+ (+ = pIC50 4.00-4.99)	+− (+− = pIC50 <4.00)	+ (+ = pIC50 4.00-4.99)
O=C(c1cccs1)N1CCC(c2c[nH]c3ccccc23)CC1 [Compound 11]	+− (+− = pIC50 <4.00)	+ (+ = pIC50 4.00-4.99)	+− (+− = pIC50 <4.00)	+ (+ = pIC50 4.00-4.99)
CCc1cc(Br)ccc1S(=O)(=O)N1CCC(c2c[nH]c3ccc(OC)cc23)CC1 [Compound 29]	+− (+− = pIC50 <4.00)	+ (+ = pIC50 4.00-4.99)	+− (+− = pIC50 <4.00)	+− (+− = pIC50 <4.00)
Cc1ccc2[nH]cc(C3CCN(S(=O)(=O)c4cc(C)c(Cl)cc4Cl)CC3)c2c1 [Compound 31]	+− (+− = pIC50 <4.00)	+ (+ = pIC50 4.00-4.99)	+− (+− = pIC50 <4.00)	+− (+− = pIC50 <4.00)
Cc1cccc2c(C3CCN(C(=O)c4ccc(F)c(C(F)(F)F)c4)CC3)c[nH]c12 [Compound 54]	+− (+− = pIC50 <4.00)	+ (+ = pIC50 4.00-4.99)	+− (+− = pIC50 <4.00)	+ (+ = pIC50 4.00-4.99)
CC(=O)N1CC=C(c2c[nH]c3c(F)cccc23)CC1 [Compound 94]	+− (+− = pIC50 <4.00)	+− (+− = pIC50 <4.00)	+ (+ = pIC50 4.00-4.99)	+ (+ = pIC50 4.00-4.99)
Cc1ccc2[nH]cc(C3CCN(S(=O)(=O)c4cc(C(F)(F)F)ccc4C(F)(F)F)CC3)c2c1 [Compound 35]	+− (+− = pIC50 <4.00)	+ (+ = pIC50 4.00-4.99)	+− (+− = pIC50 <4.00)	+− (+− = pIC50 <4.00)
CS(=O)(=O)N1CCC(c2c[nH]c3cc(F)ccc23)CC1 [Compound 22]	+− (+− = pIC50 <4.00)	+− (+− = pIC50 <4.00)	+ (+ = pIC50 4.00-4.99)	+++ (+++ = pIC50 ≥6.00)
CC(=O)N1CCC(c2c[nH]c3ncccc23)CC1 [Compound 99]	+− (+− = pIC50 <4.00)	+ (+ = pIC50 4.00-4.99)	+− (+− = pIC50 <4.00)	+− (+− = pIC50 <4.00)
CS(=O)(=O)N1CC=C(c2c[nH]c3cc(Cl)ccc23)CC1 [Compound 76]	+− (+− = pIC50 <4.00)	+ (+ = pIC50 4.00-4.99)	++ (++ = pIC50 5.00-5.99)	++ (++ = pIC50 5.00-5.99)
Cc1cccc2c(C3CCN(C(=O)c4ccccc4OC(F)(F)F)CC3)c[nH]c12 [Compound 59]	+− (+− = pIC50 <4.00)	+ (+ = pIC50 4.00-4.99)	+− (+− = pIC50 <4.00)	+ (+ = pIC50 4.00-4.99)
Cc1ccc(S(=O)(=O)N2CCC(c3c[nH]c4ccccc34)CC2)c(C)c1 [Compound 14]	+− (+− = pIC50 <4.00)	+− (+− = pIC50 <4.00)	+− (+− = pIC50 <4.00)	+ (+ = pIC50 4.00-4.99)
COc1ccc2[nH]cc(C3=CCN(C(C)=O)CC3)c2c1 [Compound 70]	+− (+− = pIC50 <4.00)	+− (+− = pIC50 <4.00)	+ (+ = pIC50 4.00-4.99)	+− (+− = pIC50 <4.00)
CC(C)OCC(=O)N1CC=C(c2c[nH]c3cc(F)ccc23)CC1 [Compound 163]	+− (+− = pIC50 <4.00)	+ (+ = pIC50 4.00-4.99)	++ (++ = pIC50 5.00-5.99)	+++ (+++ = pIC50 ≥6.00)
COCC(=O)N1CCC(c2c[nH]c3ccccc23)CC1 [Compound 84]	+− (+− = pIC50 <4.00)	+− (+− = pIC50 <4.00)	+− (+− = pIC50 <4.00)	+ (+ = pIC50 4.00-4.99)
CC(=O)N1CC=C(c2c[nH]c3cc(Cl)ccc23)CC1 [Compound 79]	+− (+− = pIC50 <4.00)	+ (+ = pIC50 4.00-4.99)	++ (++ = pIC50 5.00-5.99)	++ (++ = pIC50 5.00-5.99)
Cc1ccc2[nH]cc(C3CCN(S(C)(=O)=O)CC3)c2c1 [Compound 85]	+− (+− = pIC50 <4.00)	++ (++ = pIC50 5.00-5.99)	+− (+− = pIC50 <4.00)	++ (++ = pIC50 5.00-5.99)
CC(=O)N1CC=C(c2c[nH]c3ncccc23)CC1 [Compound 105]	+− (+− = pIC50 <4.00)	+ (+ = pIC50 4.00-4.99)	+ (+ = pIC50 4.00-4.99)	+− (+− = pIC50 <4.00)
CC(=O)N1CC=C(c2n[nH]c3ccccc23)CC1 [Compound 102]	+− (+− = pIC50 <4.00)	+− (+− = pIC50 <4.00)	+ (+ = pIC50 4.00-4.99)	+− (+− = pIC50 <4.00)
CCCCS(=O)(=O)N1CC=C(c2c[nH]c3cc(F)ccc23)CC1 [Compound 18]	+− (+− = pIC50 <4.00)	+ (+ = pIC50 4.00-4.99)	+ (+ = pIC50 4.00-4.99)	++ (++ = pIC50 5.00-5.99)
CC(=O)N1CCC(c2c[nH]c3cccc(F)c23)CC1 [Compound 98]	+− (+− = pIC50 <4.00)	+− (+− = pIC50 <4.00)	+− (+− = pIC50 <4.00)	+ (+ = pIC50 4.00-4.99)
Cc1cccc2c(C3CCN(C(=O)c4cc(Cl)cnc4Cl)CC3)c[nH]c12 [Compound 28]	+− (+− = pIC50 <4.00)	+ (+ = pIC50 4.00-4.99)	+− (+− = pIC50 <4.00)	+− (+− = pIC50 <4.00)
CC(C)C(=O)N1CCC(c2c[nH]c3ccccc23)CC1 [Compound 106]	+− (+− = pIC50 <4.00)	+− (+− = pIC50 <4.00)	+− (+− = pIC50 <4.00)	+ (+ = pIC50 4.00-4.99)
